According to ChEMBL document CHEMBL1201862, “PubChem BioAssay data set” (2004):
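All cell lines were grown in 96-well plates and treated with compound for 48 hours. At the GI50, growth is halved.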 Activity calls are given as the source filed them. No stated cut-off is given here; in the data, active = GI50 up to about 1.1 µM and inactive = higher.

Legend:
Assay in all cases: DTP human tumour cell line panel, 48 h
[1] = tested on: SNB-75
[2] = tested on: SW-620
[3] = tested on: SK-MEL-5
[4] = tested on: IGROV-1
[5] = tested on: UACC-257
[6] = tested on: SR
[7] = tested on: TK-10
[8] = tested on: MDA-N
[9] = tested on: LOX IMVI
[10] = tested on: SK-OV-3
[11] = tested on: Malme-3M
[12] = tested on: RPMI-8226
[13] = tested on: SN12C
[14] = tested on: CCRF-CEM
[15] = tested on: NCI/ADR-RES
[16] = tested on: SF-268
[17] = tested on: SK-MEL-2
[18] = tested on: COLO 205
[19] = tested on: HCC 2998
[20] = tested on: RXF 393

SMILES | GI50 [1] | GI50 [2] | GI50 [3] | GI50 [4] | GI50 [5] | GI50 [6] | GI50 [7] | GI50 [8] | GI50 [9] | GI50 [10] | GI50 [11] | GI50 [12] | GI50 [13] | GI50 [14] | GI50 [15] | GI50 [16] | GI50 [17] | GI50 [18] | GI50 [19] | GI50 [20]
C[C@H](c1ccccc1)N1C(=O)[C@@H](O)[C@H]1[C@H](CO)OCc1ccccc1 | > 100 µM (inactive) | > 100 µM (inactive) | > 100 µM (inactive) | > 100 µM (inactive) | > 100 µM (inactive) | > 100 µM (inactive) | > 100 µM (inactive) | > 100 µM (inactive) | > 100 µM (inactive) | > 100 µM (inactive) | > 100 µM (inactive) | > 100 µM (inactive) | > 100 µM (inactive) | > 100 µM (inactive) | > 100 µM (inactive) | > 100 µM (inactive) | > 100 µM (inactive) | > 100 µM (inactive) | – | –
C/C(=N/NC(=S)N1CCN(C(=S)N/N=C(/C)c2ccccn2)CC1)c1ccccn1 | 15.1 µM (inactive) | 7 µM (inactive) | 6.97 µM (inactive) | 17.7 µM (inactive) | 16.3 µM (inactive) | – | 4.84 µM (inactive) | > 77.8 µM (inactive) | 5.94 µM (inactive) | 8.3 µM (inactive) | 4.6 µM (inactive) | 12.1 µM (inactive) | 8.65 µM (inactive) | 0.682 µM (active) | 4.16 µM (inactive) | 3.03 µM (inactive) | > 100 µM (inactive) | 4.16 µM (inactive) | 22.5 µM (inactive) | 3.52 µM (inactive)
c1cncc(-c2ncc3cccnc3n2)c1 | > 100 µM (inactive) | > 100 µM (inactive) | > 100 µM (inactive) | > 100 µM (inactive) | > 100 µM (inactive) | – | > 100 µM (inactive) | > 100 µM (inactive) | > 100 µM (inactive) | > 100 µM (inactive) | > 100 µM (inactive) | > 100 µM (inactive) | > 100 µM (inactive) | > 100 µM (inactive) | > 100 µM (inactive) | – | > 100 µM (inactive) | > 100 µM (inactive) | > 100 µM (inactive) | > 100 µM (inactive)
O=C(c1cc(Cl)cc(Cl)c1)N(C(=O)N1CCN(c2ccccc2)CC1)c1ccccc1 | > 100 µM (inactive) | 30.3 µM (inactive) | 21.6 µM (inactive) | – | 28.9 µM (inactive) | – | 54.6 µM (inactive) | 12.7 µM (inactive) | 36.5 µM (inactive) | 96.6 µM (inactive) | 47 µM (inactive) | – | 55.6 µM (inactive) | 22.5 µM (inactive) | 25.6 µM (inactive) | 43.1 µM (inactive) | 24.8 µM (inactive) | 17.3 µM (inactive) | 51.9 µM (inactive) | 37 µM (inactive)
CC(C)(C)C1CCC2c3c([nH]c4ccccc34)C3C(=O)N(c4cc(Br)cc(Br)c4)C(=O)C3C2C1 (configuration not stated) | – | 51.2 µM (inactive) | 24.2 µM (inactive) | 70.3 µM (inactive) | > 100 µM (inactive) | 7.89 µM (inactive) | 19.9 µM (inactive) | 31.9 µM (inactive) | 27.2 µM (inactive) | 61.1 µM (inactive) | 57.9 µM (inactive) | 36.4 µM (inactive) | 6.82 µM (inactive) | 5.79 µM (inactive) | 14.6 µM (inactive) | – | 26.7 µM (inactive) | 19.6 µM (inactive) | 5.05 µM (inactive) | –
CC1(C)C(CCO)CC1n1ccc(=O)[nH]c1=O (configuration not stated) | > 100 µM (inactive) | > 100 µM (inactive) | > 100 µM (inactive) | – | > 100 µM (inactive) | – | > 100 µM (inactive) | > 100 µM (inactive) | > 100 µM (inactive) | > 100 µM (inactive) | – | – | > 100 µM (inactive) | > 100 µM (inactive) | > 100 µM (inactive) | > 100 µM (inactive) | > 100 µM (inactive) | – | > 100 µM (inactive) | > 100 µM (inactive)
COc1ccc2c(c1)CCC/C2=N\NS(=O)(=O)c1c(C)cc(C)cc1C | 13.8 µM (inactive) | 28.1 µM (inactive) | 17.3 µM (inactive) | 19 µM (inactive) | 39.2 µM (inactive) | 20.2 µM (inactive) | 51.4 µM (inactive) | 28.6 µM (inactive) | 19.4 µM (inactive) | – | 24.4 µM (inactive) | – | 21.8 µM (inactive) | 27.1 µM (inactive) | 21.7 µM (inactive) | – | 34.3 µM (inactive) | 23.9 µM (inactive) | 41.5 µM (inactive) | –
COC(=O)c1ccccc1C1CN=NC12Cc1ccc3c(c1C2=O)CCC3 (configuration not stated) | 58.6 µM (inactive) | > 100 µM (inactive) | 17.4 µM (inactive) | > 100 µM (inactive) | 44.1 µM (inactive) | – | > 100 µM (inactive) | > 100 µM (inactive) | 9.04 µM (inactive) | 49.4 µM (inactive) | 21.8 µM (inactive) | – | > 100 µM (inactive) | 19.3 µM (inactive) | 19.5 µM (inactive) | 27.6 µM (inactive) | > 100 µM (inactive) | > 100 µM (inactive) | > 100 µM (inactive) | 67.9 µM (inactive)
O=C1/C(=C\c2ccc(Cl)cc2)N=C(c2ccccc2)N1n1c(=O)cn[nH]c1=S | – | 18.1 µM (inactive) | 21.7 µM (inactive) | 18.5 µM (inactive) | 29.5 µM (inactive) | 22.5 µM (inactive) | – | 52.6 µM (inactive) | 27.8 µM (inactive) | > 100 µM (inactive) | > 100 µM (inactive) | 18.4 µM (inactive) | – | 2.56 µM (inactive) | 45 µM (inactive) | – | > 100 µM (inactive) | > 100 µM (inactive) | 84.3 µM (inactive) | –
COC(=O)c1cc(NC(=O)c2cc(NC(=O)Cc3c[nH]c4ccccc34)cn2C)cn1C | 20.5 µM (inactive) | 57.1 µM (inactive) | 16 µM (inactive) | – | – | – | 31.5 µM (inactive) | 37.2 µM (inactive) | 32 µM (inactive) | 40 µM (inactive) | 21.1 µM (inactive) | 20.5 µM (inactive) | 33.4 µM (inactive) | 32.7 µM (inactive) | > 100 µM (inactive) | 42.6 µM (inactive) | 19.6 µM (inactive) | 24.2 µM (inactive) | – | 31.3 µM (inactive)
CC(=O)NC(CC(C)C)C(=O)NC(CC(C)C)C(=O)NC(C=O)CCCNC(=N)N (configuration not stated) | > 100 µM (inactive) | > 100 µM (inactive) | > 100 µM (inactive) | > 100 µM (inactive) | > 100 µM (inactive) | > 100 µM (inactive) | > 100 µM (inactive) | > 100 µM (inactive) | > 100 µM (inactive) | > 100 µM (inactive) | 72.6 µM (inactive) | > 100 µM (inactive) | > 100 µM (inactive) | > 100 µM (inactive) | > 100 µM (inactive) | > 100 µM (inactive) | > 100 µM (inactive) | > 100 µM (inactive) | > 100 µM (inactive) | –
NNC(=O)c1ccc[n+](CCc2ccccc2)c1 | > 100 µM (inactive) | > 100 µM (inactive) | > 100 µM (inactive) | > 100 µM (inactive) | > 100 µM (inactive) | – | > 100 µM (inactive) | > 100 µM (inactive) | > 100 µM (inactive) | > 100 µM (inactive) | > 100 µM (inactive) | > 100 µM (inactive) | > 100 µM (inactive) | – | > 100 µM (inactive) | > 100 µM (inactive) | – | > 100 µM (inactive) | > 100 µM (inactive) | > 100 µM (inactive)
NC1=Nc2cc(Cl)ccc2Sc2nc3ccccc3n21 | 21.4 µM (inactive) | > 86.3 µM (inactive) | 4.92 µM (inactive) | 4.7 µM (inactive) | 5.83 µM (inactive) | 2.64 µM (inactive) | > 88.9 µM (inactive) | 3.44 µM (inactive) | 4.4 µM (inactive) | > 100 µM (inactive) | > 100 µM (inactive) | 5.73 µM (inactive) | > 100 µM (inactive) | 1.22 µM (inactive) | > 100 µM (inactive) | > 61.5 µM (inactive) | 20 µM (inactive) | 2.5 µM (inactive) | > 100 µM (inactive) | –
N=C(N)/N=C(\N)Nc1cnccn1 | > 100 µM (inactive) | > 100 µM (inactive) | > 100 µM (inactive) | > 100 µM (inactive) | > 100 µM (inactive) | – | > 100 µM (inactive) | > 100 µM (inactive) | > 100 µM (inactive) | > 100 µM (inactive) | > 100 µM (inactive) | – | > 100 µM (inactive) | > 100 µM (inactive) | > 100 µM (inactive) | – | > 100 µM (inactive) | > 100 µM (inactive) | > 100 µM (inactive) | > 100 µM (inactive)
CC(C)OP(=O)(OC(C)C)C(C(C)C)N(C)/C(F)=N/C(F)(F)F (configuration not stated) | > 100 µM (inactive) | > 100 µM (inactive) | > 100 µM (inactive) | > 100 µM (inactive) | > 100 µM (inactive) | – | > 100 µM (inactive) | > 100 µM (inactive) | > 100 µM (inactive) | > 100 µM (inactive) | > 100 µM (inactive) | – | > 100 µM (inactive) | > 100 µM (inactive) | > 100 µM (inactive) | > 100 µM (inactive) | – | > 100 µM (inactive) | > 100 µM (inactive) | > 100 µM (inactive)
COC(=O)C1=C(C(=O)OC)C(C(=O)c2ccc(Br)cc2)N2N=C(c3ccc(Cl)cc3)C=CC12 (configuration not stated) | 35.2 µM (inactive) | > 100 µM (inactive) | > 100 µM (inactive) | > 100 µM (inactive) | > 100 µM (inactive) | 40.6 µM (inactive) | > 100 µM (inactive) | > 100 µM (inactive) | > 100 µM (inactive) | > 100 µM (inactive) | > 100 µM (inactive) | > 100 µM (inactive) | > 100 µM (inactive) | > 100 µM (inactive) | > 100 µM (inactive) | 69.7 µM (inactive) | > 100 µM (inactive) | > 100 µM (inactive) | > 100 µM (inactive) | –
